In the assay the target is T1, recombinant mouse NEU3 (Mus musculus, UniProt Q9JMH7).
T1 construct: c-Myc; host or cells: HEK 293 Freestyle cells
T1 sequence (Q9JMH7 1-418): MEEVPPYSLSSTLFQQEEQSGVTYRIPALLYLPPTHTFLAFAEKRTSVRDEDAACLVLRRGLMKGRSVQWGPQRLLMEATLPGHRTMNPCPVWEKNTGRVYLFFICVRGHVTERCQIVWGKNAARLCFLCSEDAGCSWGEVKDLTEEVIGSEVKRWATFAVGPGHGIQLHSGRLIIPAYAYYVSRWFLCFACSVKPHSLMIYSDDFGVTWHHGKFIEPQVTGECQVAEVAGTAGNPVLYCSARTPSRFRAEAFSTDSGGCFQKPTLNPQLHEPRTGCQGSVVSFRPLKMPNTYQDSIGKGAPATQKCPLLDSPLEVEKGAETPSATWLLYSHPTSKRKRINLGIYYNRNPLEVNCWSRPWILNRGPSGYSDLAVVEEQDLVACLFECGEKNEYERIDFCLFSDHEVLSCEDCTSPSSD
The assay can be described thus: Recombinant mouse NEU3-catalyzed TGF-β1 activation (TGF-β1 ELISA). The class given is biochemical. Conditions: recombinant mouse NEU3, FIGS. 7A-B. The method, then:
To determine if selected NEU3 inhibitors could be used in mice to inhibit mouse NEU3, we made recombinant mouse NEU3 in HEK 293 Freestyle human embryonic kidney cells. HEK 293 Freestyle cells (Life Technologies, Grand Island, NY) were cultured in FreeStyle 293 media (12338-018, Life Technologies, Grand Island, NY). 1×10^5 cells were mixed with 2 μg of 100 μg/ml of murine Neu3 expression clone (MR223297, Origene), in 100 μl PBS (GE Lifesciences), and were transfected by electroporation using a 4D-Nucelofactor System (Lonza) following the manufacturer's protocol. The transfected cells were kept at room temperature for 15 minutes for recovery, after which the cells were cultured in 25 ml Freestyle 293 media with 250 μg/ml of G418 antibiotic (345812, Calbiochem EMD Chemicals Inc. San Diego, CA) to select for transfected cells, in a 200 ml cell culture flask (431464U, Corning) at 37° C. humidified with 5% CO2. After 10 days, the cells were isolated, lysed, and c-Myc tagged recombinant mouse NEU3 protein was purified using a Myc-Trap A kit (ytak-20, Chromotek, Hauppauge, NY) following the manufacturer's protocol. The eluted protein was stored in 50 μl of 10% glycerol, 100 mM glycine, 25 mM Tris-HCl pH 7.3.
To determine if NEU3 inhibitors would be effective in mice, NEU3 inhibitors were tested against recombinant mouse NEU3. […]

With `CC(=O)c1ccccn1` [Compound 5, 2-acetylpyridine], the “inhibition of NEU3's activation of TGF-β1” value is recorded as “inhibited”.
Under `COC(=O)c1ccccn1` [Compound 6, methyl picolinate] stands “inhibited”.

For the origin of these results see patent publication US12616674B2, “Anti-fibrotic NEU3 inhibitor compounds and methods of use” (The Texas A&M University System, priority 2019, dated 2026).
